Patent publication US10183938B2, “Geminal substituted quinuclidine amide compounds as agonists of α-7 nicotonic acetylcholine receptors” (AXOVANT SCIENCES GMBH, priority 2014, dated 2019)
Counter-ions that a name gives are not always drawn.

molecular target: human 5-HT3 serotonin receptors (Homo sapiens (Human), UniProt P46098); assay: [3H]BRL 43694 competition binding; settings: CHO cell membranes, [3H]BRL 43694, Cheng Prusoff; read-out: h-5HT3 Ki
Sequence (P46098 24-478): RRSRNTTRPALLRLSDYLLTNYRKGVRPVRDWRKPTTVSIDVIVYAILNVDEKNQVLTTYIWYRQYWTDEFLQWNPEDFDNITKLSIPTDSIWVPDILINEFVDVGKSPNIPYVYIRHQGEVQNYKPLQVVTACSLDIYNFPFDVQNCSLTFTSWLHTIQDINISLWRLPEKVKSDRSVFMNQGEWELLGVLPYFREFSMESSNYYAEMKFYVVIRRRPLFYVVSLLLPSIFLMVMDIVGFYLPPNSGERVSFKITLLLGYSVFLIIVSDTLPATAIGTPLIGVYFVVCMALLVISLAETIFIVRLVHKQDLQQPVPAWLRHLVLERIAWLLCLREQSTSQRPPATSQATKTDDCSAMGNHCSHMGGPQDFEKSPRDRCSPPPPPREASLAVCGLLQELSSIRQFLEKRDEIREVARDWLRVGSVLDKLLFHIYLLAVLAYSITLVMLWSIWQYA

CC1(C)[C@H](NC(=O)c2cc3ccc(Cl)c(C(F)(F)F)c3s2)C2CCN1CC2 [(R)-111, (R)-6-chloro-N-(2,2-dimethylquinuclidin-3-yl)-7-(trifluoromethyl)benzo[b]thiophene-2-carboxamide hydrochloride] and Cc1ccc2cc(C(=O)N[C@@H]3C4CCN(CC4)C3(C)C)sc2c1C(F)(F)F [(R)-113, (R)—N-(2,2-dimethylquinuclidin-3-yl)-6-methyl-7-(trifluoromethyl)benzo[b]thiophene-2-carboxamide hydrochloride] cannot be ordered by Ki: over 10 µM for the first, over 10 µM for the second.

CC1(C)[C@H](NC(=O)c2cc3cccc(C4CC4)c3s2)C2CCN1CC2 [(R)-118, (R)-7-cyclopropyl-N-(2,2-dimethylquinuclidin-3-yl)benzo[b]thiophene-2-carboxamide hydrochloride] and Cc1cccc2cc(C(=O)N[C@@H]3C4CCN(CC4)C3(C)C)sc12 [(R)-126, (R)—N-(2,2-dimethylquinuclidin-3-yl)-7-methylbenzo[b]thiophene-2-carboxamide hydrochloride] are within 1.5-fold of each other in Ki: 0.23 µM for the first, 0.17 µM for the second.

CC1(C)[C@H](NC(=O)c2cc3cc(F)c(Cl)cc3s2)C2CCN1CC2 [(R)-123, (R)-6-chloro-N-(2,2-dimethylquinuclidin-3-yl)-5-fluorobenzo[b]thiophene-2-carboxamide hydrochloride] and CC1(C)[C@H](NC(=O)c2cc3cc(F)c(Cl)c(F)c3s2)C2CCN1CC2 [(R)-125, (R)-6-chloro-N-(2,2-dimethylquinuclidin-3-yl)-5,7-difluorobenzo[b]thiophene-2-carboxamide hydrochloride] cannot be ordered by Ki: over 10 µM for the first, over 10 µM for the second.

molecular target: human α7 nAChRs transiently expressed in Xenopus laevis oocytes (Homo sapiens (Human), UniProt P36544); assay: Oocyte electrophysiology screen (TEVC); assay type: cell-based; settings: 0.01 mM test compound, peak current relative to 0.2 mM ACh
Sequence (P36544 23-502 limits assumed): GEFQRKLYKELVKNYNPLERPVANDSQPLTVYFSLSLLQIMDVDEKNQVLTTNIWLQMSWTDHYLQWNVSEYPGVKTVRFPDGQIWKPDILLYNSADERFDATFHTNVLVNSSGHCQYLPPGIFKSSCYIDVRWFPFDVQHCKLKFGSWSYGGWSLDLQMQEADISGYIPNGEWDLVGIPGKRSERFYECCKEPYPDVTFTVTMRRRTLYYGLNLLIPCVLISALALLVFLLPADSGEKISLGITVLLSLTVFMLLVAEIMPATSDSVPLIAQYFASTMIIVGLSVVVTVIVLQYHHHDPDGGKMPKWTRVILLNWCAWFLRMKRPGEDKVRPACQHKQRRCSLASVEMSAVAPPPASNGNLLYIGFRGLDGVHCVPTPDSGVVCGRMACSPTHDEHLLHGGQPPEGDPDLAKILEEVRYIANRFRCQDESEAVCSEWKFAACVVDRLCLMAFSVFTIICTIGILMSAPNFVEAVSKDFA
Summary of the method: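 Peak inward current from 0.01 mM compound, applied 30 s, is expressed relative to a 5 s 0.2 mM ACh reference response, in triplicate. Recordings used two-electrode voltage clamp at −80 mV in Xenopus oocytes with 90 s OR2 washes.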

First: Cl.Cn1c(C(=O)N[C@@H]2C3CCN(CC3)C23CC3)cc2ccccc21 [(R)-254, (R)-1-methyl-N-(1′-azaspiro[cyclopropane-1,2′-bicyclo[2.2.2]octan]-3′-yl)-1H-indole-2-carboxamide hydrochloride]
Second: CC1(C)[C@@H](NC(=O)c2cc3cccc(Cl)c3s2)C2CCN1CC2 [(S)-3, (S)-7-chloro-N-(2,2-dimethylquinuclidin-3-yl)benzo[b]thiophene-2-carboxamide hydrochloride]
The “% ACh @ 10 μM Oocyte” value of the first is higher: 447 % ACh for the first, 22 % ACh for the second.

Going from CC1(C)[C@@H](NC(=O)c2cc3cccc(F)c3s2)C2CCN1CC2 [(S)-4, (S)—N-(2,2-dimethylquinuclidin-3-yl)-7-fluoro-benzo[b]thiophene-2-carboxamide hydrochloride] to CC1(C)[C@@H](NC(=O)c2ccc3ccsc3c2)C2CCN1CC2 [(S)-5, (S)—N-(2,2-dimethylquinuclidin-3-yl)benzo[b]thiophene-6-carboxamide hydrochloride], the “% ACh @ 10 μM Oocyte” value falls from 17 % ACh to 9 % ACh.

CC1(C)[C@@H](NC(=O)c2ccc3occc3c2)C2CCN1CC2 [(S)-6, (S)—N-(2,2-dimethylquinuclidin-3-yl)benzofuran-5-carboxamide hydrochloride] and CC1(C)[C@@H](NC(=O)c2cc3cccc(C(F)(F)F)c3s2)C2CCN1CC2 [(S)-7, (S)—N-(2,2-dimethylquinuclidin-3-yl)-7-(trifluoromethyl)benzo[b]thiophene-2-carboxamide hydrochloride] are the same in “% ACh @ 10 μM Oocyte” value: 2 % ACh for the first, 2 % ACh for the second.

CC1(C)[C@@H](NC(=O)c2cc3ccc(F)cc3s2)C2CCN1CC2 [(S)-8, (S)—N-(2,2-dimethylquinuclidin-3-yl)-6-fluorobenzo[b]thiophene-2-carboxamide hydrochloride] and CC1(C)[C@@H](NC(=O)c2cc3ccc(C#N)cc3s2)C2CCN1CC2 [(S)-9, (S)-6-cyano-N-(2,2-dimethylquinuclidin-3-yl)benzo[b]thiophene-2-carboxamide hydrochloride] are the same in “% ACh @ 10 μM Oocyte” value: 1 % ACh for the first, 1 % ACh for the second.

Compared with CC1(C)[C@@H](NC(=O)c2cc3ccc(C(F)(F)F)cc3s2)C2CCN1CC2 [(S)-10, (S)—N-(2,2-dimethylquinuclidin-3-yl)-6-(trifluoromethyl)benzo[b]thiophene-2-carboxamide hydrochloride], CC1(C)[C@@H](NC(=O)c2cc3cc(F)ccc3s2)C2CCN1CC2 [(S)-11, (S)—N-(2,2-dimethylquinuclidin-3-yl)-5-fluorobenzo[b]thiophene-2-carboxamide hydrochloride] is higher in “% ACh @ 10 μM Oocyte” value: 1 % ACh for the first, 9 % ACh for the second.

CC1(C)[C@@H](NC(=O)c2cc3ccc(Cl)cc3s2)C2CCN1CC2 [(S)-12, (S)-6-chloro-N-(2,2-dimethylquinuclidin-3-yl)benzo[b]thiophene-2-carboxamide hydrochloride] and CC1(C)[C@@H](NC(=O)c2cc3cc(Cl)ccc3s2)C2CCN1CC2 [(S)-13, (S)-5-chloro-N-(2,2-dimethylquinuclidin-3-yl)benzo[b]thiophene-2-carboxamide hydrochloride] are the same in “% ACh @ 10 μM Oocyte” value: 3 % ACh for the first, 3 % ACh for the second.

CC1(C)[C@@H](NC(=O)c2cc3cc(Cl)c(Cl)cc3s2)C2CCN1CC2 [(S)-14, (S)-5,6-dichloro-N-(2,2-dimethylquinuclidin-3-yl)benzo[b]thiophene-2-carboxamide hydrochloride] and Cc1ccc2cc(C(=O)N[C@H]3C4CCN(CC4)C3(C)C)sc2c1 [(S)-15, (S)—N-(2,2-dimethylquinuclidin-3-yl)-6-methylbenzo[b]thiophene-2-carboxamide hydrochloride] are the same in “% ACh @ 10 μM Oocyte” value: 3 % ACh for the first, 3 % ACh for the second.

First: Cc1ccc2sc(C(=O)N[C@H]3C4CCN(CC4)C3(C)C)cc2c1 [(S)-16, (S)—N-(2,2-dimethylquinuclidin-3-yl)-5-methylbenzo[b]thiophene-2-carboxamide hydrochloride]
Second: CC1(C)[C@@H](NC(=O)c2cc3cc(C(F)(F)F)ccc3s2)C2CCN1CC2 [(S)-17, (S)—N-(2,2-dimethylquinuclidin-3-yl)-5-(trifluoromethyl)benzo[b]thiophene-2-carboxamide hydrochloride]
The “% ACh @ 10 μM Oocyte” value of the first is higher: 2 % ACh for the first, 1 % ACh for the second.

Going from CC1(C)[C@@H](NC(=O)c2cc3ccc(C4CC4)cc3s2)C2CCN1CC2 [(S)-18, (S)-6-cyclopropyl-N-(2,2-dimethylquinuclidin-3-yl)benzo[b]thiophene-2-carboxamide hydrochloride] to CC1(C)[C@@H](NC(=O)c2cc3cc(C4CC4)ccc3s2)C2CCN1CC2 [(S)-19, (S)-5-cyclopropyl-N-(2,2-dimethylquinuclidin-3-yl)benzo[b]thiophene-2-carboxamide hydrochloride], the “% ACh @ 10 μM Oocyte” value rises from 1 % ACh to 3 % ACh.

First: COc1ccc2cc(C(=O)N[C@H]3C4CCN(CC4)C3(C)C)sc2c1 [(S)-20, (S)—N-(2,2-dimethylquinuclidin-3-yl)-6-methoxybenzo[b]thiophene-2-carboxamide hydrochloride]
Second: COc1ccc2sc(C(=O)N[C@H]3C4CCN(CC4)C3(C)C)cc2c1 [(S)-21, (S)—N-(2,2-dimethylquinuclidin-3-yl)-5-methoxybenzo[b]thiophene-2-carboxamide hydrochloride]
The “% ACh @ 10 μM Oocyte” value of the first is higher: 5 % ACh for the first, 1 % ACh for the second.

First: CC1(C)[C@@H](NC(=O)c2cc3ccoc3cn2)C2CCN1CC2 [(S)-22, (S)—N-(2,2-dimethylquinuclidin-3-yl)furo[2,3-c]pyridine-5-carboxamide hydrochloride]
Second: CC1(C)[C@@H](NC(=O)c2cc3c(cn2)OCCO3)C2CCN1CC2 [(S)-23, (S)—N-(2,2-dimethylquinuclidin-3-yl)-2,3-dihydro-[1,4]dioxino[2,3-c]pyridine-7-carboxamide hydrochloride]
The “% ACh @ 10 μM Oocyte” value of the first is higher: 25 % ACh for the first, 0 % ACh for the second.

Compared with CC1(C)[C@@H](NC(=O)c2cnn3ncccc23)C2CCN1CC2 [(S)-27, (S)—N-(2,2-dimethylquinuclidin-3-yl)pyrazolo[1,5-b]pyridazine-3-carboxamide hydrochloride], CC1(C)[C@@H](NC(=O)c2cc3cccnc3s2)C2CCN1CC2 [(S)-28, (S)—N-(2,2-dimethylquinuclidin-3-yl)thieno[2,3-b]pyridine-2-carboxamide hydrochloride] is higher in “% ACh @ 10 μM Oocyte” value: 0 % ACh for the first, 1 % ACh for the second.

First: CC1(C)[C@@H](NC(=O)c2nc3ccccc3s2)C2CCN1CC2 [(S)-29, (S)—N-(2,2-dimethylquinuclidin-3-yl)benzo[d]thiazole-2-carboxamide hydrochloride]
Second: O=C(N[C@H]1C2CCN(CC2)C12CC2)c1cc2ccoc2cn1 [(S)-75, (S)—N-(1′-azaspiro[cyclopropane-1,2′-bicyclo[2.2.2]octan]-3′-yl)furo[2,3-c]pyridine-5-carboxamide hydrochloride]
The “% ACh @ 10 μM Oocyte” value of the first is lower: 2 % ACh for the first, 14 % ACh for the second.

Going from O=C(N[C@H]1C2CCN(CC2)C12CC2)c1cc2c(cn1)OCCO2 [(S)-76, (S)—N-(1′-azaspiro[cyclopropane-1,2′-bicyclo[2.2.2]octan]-3′-yl)-2,3-dihydro-[1,4]dioxino[2,3-c]pyridine-7-carboxamide hydrochloride] to O=C(N[C@H]1C2CCN(CC2)C12CC2)c1cnn2ncccc12 [(S)-80, (S)—N-(1′-azaspiro[cyclopropane-1,2′-bicyclo[2.2.2]octan]-3′-yl)pyrazolo[1,5-b]pyridazine-3-carboxamide hydrochloride], the “% ACh @ 10 μM Oocyte” value rises from 1 % ACh to 2 % ACh.

First: O=C(N[C@H]1C2CCN(CC2)C12CC2)c1cc2cccnc2s1 [(S)-81, (S)—N-(1′-azaspiro[cyclopropane-1,2′-bicyclo[2.2.2]octan]-3′-yl)thieno[2,3-b]pyridine-2-carboxamide hydrochloride]
Second: O=C(N[C@H]1C2CCN(CC2)C12CC2)c1nc2ccccc2s1 [(S)-82, (S)—N-(1′-azaspiro[cyclopropane-1,2′-bicyclo[2.2.2]octan]-3′-yl)benzo[d]thiazole-2-carboxamide hydrochloride]
The “% ACh @ 10 μM Oocyte” value of the first is lower: 1 % ACh for the first, 2 % ACh for the second.

“(R)-N-(2,2-dimethylquinuclidin-3-yl)-6-(trifluoromethoxy)benzo[b]thiophene-2-carboxamide hydrochloride [(R)-209]” was tested, and the “% ACh @ 10 μM Oocyte” value was 1 % ACh.
